Assay results taken from US20260083865A1, “PROSTATE SPECIFIC MEMBRANE ANTIGEN (PSMA) LIGANDS AND USE THEREOF” (priority 2022, published 2026).
Read-outs that look alike come from different tables or passages of the source. Numbered stars: 1 amine (or outer) side, 2 acyl side, 3 side chain; on linkers, the order of the positions; unused ones are H or OH. Bridge positions count the residues as written; N and C are the ends. Square brackets hold non-standard residues; d marks the D form. Peptide text beside a SMILES is read from it. * marks the point of attachment. Acetyl(1-DOTA-4-piperidyl) = O=C(O)CN1CCN(CC(=O)O)CCN(CC(=O)N2CCC(CC(=O)*)CC2)CCN(CC(=O)O)CC1; X2 = O=C(O)CN1CCN(CC(=O)O)CCN([C@H](CCC(=O)*)C(=O)O)CCN(CC(=O)O)CC1; DOTA = O=C(O)CN1CCN(CC(=O)O)CCN(CC(=O)*)CCN(CC(=O)O)CC1; Phe(4-Cl) = N[C@@H](Cc1ccc(Cl)cc1)C(=O)O; Ethylenediamine = C(CN[*:2])N[*:1]; X1 = O=C(CC1CCN([*:1])CC1)[*:2]; Aad = N[C@@H](CCCC(=O)O)C(=O)O; Cit = NC(=O)NCCC[C@H](N)C(=O)O; Tle = CC(C)(C)[C@H](N)C(=O)O; Propanoyl(3-OH) = O=C(CCO)*; Hexanoyl = CCCCCC(=O)*; Aib = CC(C)(N)C(=O)O; βAla = NCCC(=O)O

Tests used:
PC3-PIP tumor model = system: PC3-PIP tumor model; parameters: species or system mice; details: mouse, in vivo
From the text: Radioactively labeled compounds can be detected by imaging methods such as SPECT and PET. Furthermore, the data acquired by such techniques can be confirmed by direct measurement of radioactivity contained in the individual organs prepared from an animal injected with a radioactively labeled compound of the disclosure. Thus, the biodistribution (the measurement of radioactivity in individual organs) of a radioactively labeled compound can be determined and analyzed. […] All animal experiments were conducted in compliance with the German animal protection laws. Male swiss or NMRI nude mice (6-8 weeks old, Janvier Labs, France) were inoculated with 5×10^6 PC3-PIP cells in the right shoulder. For selected compounds an additional model was used, here male NMRI nude mice (6-8 weeks old, Janvier Labs, France) were inoculated with 5×10^6 or/1×10^7 C4-2 cells in the right shoulder. When tumors reached an appropriate size, the mice received ˜30 MBq ^111In-labeled compounds of the disclosure (diluted to 100 μL with PBS) administered intravenously via the tail vein. Images were obtained on a NanoSPECT/computed tomography system (Mediso Medical Imaging Systems, Budapest, Hungary) using exemplarily the following acquisition and reconstruction parameters (Table 10). [table] Imaging data were saved as DICOM files and analysed using VivoQuant™ software (Invicro, Boston, USA). In brief, regions of interest (ROIs) were drawn based on computed tomography images for the relevant organs and tissue regions such as heart (estimate of blood pool, bps), kidney, and tumor. The resulting numeric data expressed as a percentage of injected dose per gram of tissue (% ID/g) are presented in FIGS. 3(a)-3(ii) for the PC3-PIP model and FIGS. 4(a)-4(r) for the C4-2 model. Bars show mean % ID/g values of two to three animals per time point. Error bars indicate the value range (minimum and maximum values).

[1] = target: T1, Fc-fusion protein of human PSMA (hPSMA-Fc) (Homo sapiens, UniProt Q04609); assay: Surface plasmon resonance assay (Biacore T200, single cycle kinetic); format: binding; details: read-out: pKD CAT (converted)
T1 construct: purchased Acro Biosystems PSA-H5264
Procedure, shortened: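 hPSMA-Fc was captured (~1000 RU) on an Fc-binding-peptide CM5 chip, and compounds were run in single cycle kinetic mode at 25° C in HBST with 0.1% DMSO. Double-blank-corrected sensorgrams were fitted to a 1:1 Langmuir model to give KD, reported as pKD.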

[2] = target: T2, PSMA-expressing C4-2 cells (Homo sapiens, UniProt Q04609); assay: FACS binding assay (competition with 50 nM PSM-0183); details: read-out: pIC50 [C4-2] CAT (converted)
T2 construct: PSMA-expressing C4-2 cells (ATCC, Cat. No. CRL-3314) were cultured in RPMI-1640; host or cells: C4-2 cells
Procedure, shortened: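 C4-2 cells were incubated 1 h at 4 °C with 50 nM AF488-labelled peptide PSM-0183 plus increasing test compound concentrations, then washed twice in ice-cold buffer. Median fluorescence in the AF488 channel was read by flow cytometry. IC50/pIC50 was derived by 4PL fitting of MFI versus concentration.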

[3] = pKD category for PSMA SPR activity assay, hPSMA-Fc, 25° C.
[4] = pIC50 category of FACS binding, C4-2 cells
[5] = SPR, hPSMA-Fc, single cycle kinetic, 25° C., category
[6] = FACS binding, C4-2 cells, competition with 50 nM PSM-0183, category
[7] = PSMA SPR assay, hPSMA-Fc, 25° C., pKD category
[8] = FACS binding, PSMA-expressing C4-2 cells, pIC50 category

T2 sequence (Q04609 whole entry): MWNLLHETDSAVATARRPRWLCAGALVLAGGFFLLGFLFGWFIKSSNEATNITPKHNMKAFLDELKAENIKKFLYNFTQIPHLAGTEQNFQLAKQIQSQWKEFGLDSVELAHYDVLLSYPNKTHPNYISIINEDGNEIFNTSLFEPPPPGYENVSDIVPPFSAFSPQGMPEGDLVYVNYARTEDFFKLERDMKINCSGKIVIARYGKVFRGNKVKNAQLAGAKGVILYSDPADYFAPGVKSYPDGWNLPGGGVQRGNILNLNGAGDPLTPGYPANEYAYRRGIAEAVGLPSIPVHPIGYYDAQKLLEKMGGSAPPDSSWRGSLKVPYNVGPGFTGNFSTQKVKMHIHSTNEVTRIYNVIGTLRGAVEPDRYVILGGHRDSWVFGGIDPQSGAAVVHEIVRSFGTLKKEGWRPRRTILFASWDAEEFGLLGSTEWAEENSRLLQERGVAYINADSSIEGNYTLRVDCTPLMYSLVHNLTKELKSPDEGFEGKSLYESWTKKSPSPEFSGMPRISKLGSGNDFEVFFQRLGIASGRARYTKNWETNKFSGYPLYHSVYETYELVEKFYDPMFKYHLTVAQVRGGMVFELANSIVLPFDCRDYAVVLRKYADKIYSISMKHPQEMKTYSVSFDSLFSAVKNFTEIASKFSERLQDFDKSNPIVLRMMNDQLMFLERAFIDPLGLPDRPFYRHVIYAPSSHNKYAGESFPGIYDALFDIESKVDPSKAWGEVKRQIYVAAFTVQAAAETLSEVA
T1 sequence (Q04609 44-750 limits assumed): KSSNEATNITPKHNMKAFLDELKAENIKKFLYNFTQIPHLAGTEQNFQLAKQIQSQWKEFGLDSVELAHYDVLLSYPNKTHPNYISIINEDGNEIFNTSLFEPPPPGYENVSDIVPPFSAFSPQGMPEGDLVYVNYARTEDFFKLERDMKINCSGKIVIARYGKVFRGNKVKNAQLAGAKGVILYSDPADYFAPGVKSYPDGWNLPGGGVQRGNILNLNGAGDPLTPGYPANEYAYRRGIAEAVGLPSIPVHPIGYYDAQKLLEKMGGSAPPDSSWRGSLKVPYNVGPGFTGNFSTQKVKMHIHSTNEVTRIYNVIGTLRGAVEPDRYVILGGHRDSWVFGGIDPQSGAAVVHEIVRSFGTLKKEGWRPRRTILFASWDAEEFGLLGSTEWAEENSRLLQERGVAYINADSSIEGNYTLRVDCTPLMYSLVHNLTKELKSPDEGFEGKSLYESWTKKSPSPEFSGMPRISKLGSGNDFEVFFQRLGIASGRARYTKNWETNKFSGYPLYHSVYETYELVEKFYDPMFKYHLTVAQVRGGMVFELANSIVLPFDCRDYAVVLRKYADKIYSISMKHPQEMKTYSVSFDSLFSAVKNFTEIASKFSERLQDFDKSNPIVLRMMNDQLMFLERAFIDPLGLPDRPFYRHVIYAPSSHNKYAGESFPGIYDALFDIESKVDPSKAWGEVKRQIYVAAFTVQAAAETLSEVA

AUC ratio [T/K] (PC3-PIP tumor model)	Tumor AUC (PC3-PIP tumor model)	Kd [1, 3]	IC50 [2, 4]	Kd [1, 5]	IC50 [2, 6]	Kd [1, 7]	IC50 [2, 8]	Kd ([1]; PSMA SPR assay, category)	IC50 ([2]; FACS binding, C4-2 cells, category)	Compound
0.30	220 % ID/g*h	< 12.6 nM	< 200 nM							C[C@@H](O)[C@H](NC(=O)CC1CCN(C(=O)CN2CCN(CC(=O)O)CCN(CC(=O)O)CCN(CC(=O)O)CC2)CC1)C(=O)NC(C)(C)C(=O)N[C@@H](Cc1ccc(Cl)cc1)C(=O)N[C@H]1CSSC[C@@H](C(=O)N[C@H](C(=O)NCCN)C(C)(C)C)NC(=O)[C@H](CC(N)=O)NC(=O)C(C)(C)NC(=O)[C@H](CCCNC(=N)N)NC(=O)[C@H](CCCCN)NC1=O [PSM-0384, DOTA-Cmp-Thr-Aib-Pcf-[Cys-Lys-Arg-Aib-Asn-Cys]-Tle-en] ({DOTA}-[X1]T[Aib][Phe(4-Cl)]CKR[Aib]NC[Tle]-Ethylenediamine; disulfide 5-10)
1.6	120 % ID/g*h	< 12.6 nM	< 200 nM							C[C@@H](O)[C@H](NC(=O)[C@@H](NC(=O)[C@@H]1CSSC[C@H](NC(=O)[C@H](Cc2ccc(Cl)cc2)NC(=O)C(C)(C)NC(=O)[C@@H](NC(=O)CC2CCN(C(=O)CN3CCN(CC(=O)O)CCN(CC(=O)O)CCN(CC(=O)O)CC3)CC2)[C@@H](C)O)C(=O)N[C@@H](CCCCN)C(=O)N[C@@H](CCCC(N)=O)C(=O)NC(C)(C)C(=O)N[C@@H](CC(N)=O)C(=O)N1)C(C)(C)C)C(N)=O [PSM-0531, DOTA-Cmp-Thr-Aib-Pcf-[Cys-Lys-Hgn-Aib-Asn-Cys]-Tle-Thr-NH2] ({DOTA}-[X1]T[Aib][Phe(4-Cl)]CK[Aad](NH2)[Aib]NC[Tle]T-NH2; disulfide 5-10)
1.2	210 % ID/g*h			< 12.6 nM	< 200 nM					CCCCCC(=O)N[C@H](C(=O)NC(C)(C)C(=O)N[C@@H](Cc1ccc(Cl)cc1)C(=O)N[C@H]1CSSC[C@@H](C(=O)N[C@H](C(=O)N[C@H](C(=O)N[C@H](CCCCNC(=O)CC2CCN(C(=O)CN3CCN(CC(=O)O)CCN(CC(=O)O)CCN(CC(=O)O)CC3)CC2)C(N)=O)[C@@H](C)O)C(C)(C)C)NC(=O)[C@H](CC(N)=O)NC(=O)C(C)(C)NC(=O)[C@H](CCCNC(N)=O)NC(=O)[C@H](CCCCN)NC1=O)[C@@H](C)O [PSM-0239, Hex-Thr-Aib-Pcf-[Cys-Lys-Cit-Aib-Asn-Cys]-Tle-Thr-lys(DOTA-Cmp)-NH2] (Hexanoyl-T[Aib][Phe(4-Cl)]CK[Cit][Aib]NC[Tle]T[dK](Acetyl(1-DOTA-4-piperidyl))-NH2; disulfide 4-9)
2.1	180 % ID/g*h	< 12.6 nM	< 200 nM							C[C@@H](O)[C@H](NC(=O)[C@@H](NC(=O)[C@@H]1CSSC[C@H](NC(=O)[C@H](Cc2ccccc2)NC(=O)C(C)(C)NC(=O)[C@@H](NC(=O)CC2CCN(C(=O)CN3CCN(CC(=O)O)CCN(CC(=O)O)CCN(CC(=O)O)CC3)CC2)[C@@H](C)O)C(=O)N[C@@H](CCCCN)C(=O)N[C@@H](CCCNC(=N)N)C(=O)NC(C)(C)C(=O)N[C@@H](CC(N)=O)C(=O)N1)C(C)(C)C)C(N)=O [PSM-0492, DOTA-Cmp-Thr-Aib-Phe-[Cys-Lys-Arg-Aib-Asn-Cys]-Tle-Thr-NH2] ({DOTA}-[X1]T[Aib]FCKR[Aib]NC[Tle]T-NH2; disulfide 5-10)
0.85	110 % ID/g*h					< 12.6 nM	< 200 nM			C[C@@H](O)[C@H](NC(=O)CC1CCN(C(=O)CN2CCN(CC(=O)O)CCN(CC(=O)O)CCN(CC(=O)O)CC2)CC1)C(=O)NC(C)(C)C(=O)N[C@@H](Cc1ccccc1)C(=O)N[C@H]1CSSC[C@@H](C(=O)N[C@H](C(N)=O)C(C)(C)C)NC(=O)[C@H](CC(N)=O)NC(=O)C(C)(C)NC(=O)[C@H](CCCNC(=N)N)NC(=O)[C@H](CCCCN)NC1=O [PSM-0361, DOTA-Cmp-Thr-Aib-Phe-[Cys-Lys-Arg-Aib-Asn-Cys]-Tle-NH2] ({DOTA}-[X1]T[Aib]FCKR[Aib]NC[Tle]-NH2; disulfide 5-10)
1.3	280 % ID/g*h	< 12.6 nM	< 200 nM							C[C@@H](O)[C@H](NC(=O)CC1CCN(C(=O)CN2CCN(CC(=O)O)CCN(CC(=O)O)CCN(CC(=O)O)CC2)CC1)C(=O)NC(C)(C)C(=O)N[C@@H](Cc1ccc(Cl)cc1)C(=O)N[C@H]1CSSC[C@@H](C(=O)N[C@H](C(=O)NCCC(N)=O)C(C)(C)C)NC(=O)[C@H](CC(N)=O)NC(=O)C(C)(C)NC(=O)[C@H](CCCNC(=N)N)NC(=O)[C@H](CCCCN)NC1=O [PSM-0467, DOTA-Cmp-Thr-Aib-Pcf-[Cys-Lys-Arg-Aib-Asn-Cys]-Tle-Bal-NH2] ({DOTA}-[X1]T[Aib][Phe(4-Cl)]CKR[Aib]NC[Tle][βAla]-NH2; disulfide 5-10)
1.1	220 % ID/g*h	< 12.6 nM	< 200 nM							C[C@@H](O)[C@H](NC(=O)CN1CCN(CC(=O)O)CCN(CC(=O)O)CCN(CC(=O)O)CC1)C(=O)NC(C)(C)C(=O)N[C@@H](Cc1ccc(Cl)cc1)C(=O)N[C@H]1CSSC[C@@H](C(=O)N[C@H](C(N)=O)C(C)(C)C)NC(=O)[C@H](CC(N)=O)NC(=O)C(C)(C)NC(=O)[C@H](CCCNC(=N)N)NC(=O)[C@H](CCCCN)NC1=O [PSM-0534, DOTA-Thr-Aib-Pcf-[Cys-Lys-Arg-Aib-Asn-Cys]-Tle-NH2] ({DOTA}-T[Aib][Phe(4-Cl)]CKR[Aib]NC[Tle]-NH2; disulfide 4-9)
1.2	160 % ID/g*h					< 12.6 nM	< 200 nM			CC(=O)N[C@H](C(=O)NC(C)(C)C(=O)N[C@@H](Cc1ccccc1)C(=O)N[C@H]1CSSC[C@@H](C(=O)N[C@H](C(=O)N[C@H](C(=O)N2CCC(CC(=O)N[C@H](CCCCNC(=O)CC[C@H](C(=O)O)N3CCN(CC(=O)O)CCN(CC(=O)O)CCN(CC(=O)O)CC3)C(N)=O)CC2)[C@@H](C)O)C(C)(C)C)NC(=O)[C@H](CC(N)=O)NC(=O)C(C)(C)NC(=O)[C@H](CCCNC(=N)N)NC(=O)[C@H](CCCCN)NC1=O)[C@@H](C)O [PSM-0339, Ac-Thr-Aib-Phe-[Cys-Lys-Arg-Aib-Asn-Cys]-Tle-Thr-Cmp-lys (DOTAGA)-NH2] (Ac-T[Aib]FCKR[Aib]NC[Tle]T[X1][dK](X2)-NH2; disulfide 4-9)
1.6	110 % ID/g*h							< 12.6 nM	< 200 nM	C[C@@H](O)[C@H](NC(=O)[C@@H](NC(=O)[C@@H]1CSSC[C@H](NC(=O)[C@H](Cc2ccccc2)NC(=O)C(C)(C)NC(=O)[C@@H](NC(=O)CN2CCN(CC(=O)O)CCN(CC(=O)O)CCN(CC(=O)O)CC2)[C@@H](C)O)C(=O)N[C@@H](CCCCN)C(=O)N[C@@H](CCCNC(=N)N)C(=O)NC(C)(C)C(=O)N[C@@H](CC(N)=O)C(=O)N1)C(C)(C)C)C(N)=O [PSM-0580, DOTA-Thr-Aib-Phe-[Cys-Lys-Arg-Aib-Asn-Cys]-Tle-Thr-NH2] ({DOTA}-T[Aib]FCKR[Aib]NC[Tle]T-NH2; disulfide 4-9)
1.2	170 % ID/g*h			< 12.6 nM	< 200 nM					C[C@@H](O)[C@H](NC(=O)[C@@H](NC(=O)[C@@H]1CSSC[C@H](NC(=O)[C@H](Cc2ccc(Cl)cc2)NC(=O)C(C)(C)NC(=O)CCO)C(=O)N[C@@H](CCCCN)C(=O)N[C@@H](CCCNC(=N)N)C(=O)NC(C)(C)C(=O)N[C@@H](CC(N)=O)C(=O)N1)C(C)(C)C)C(=O)N[C@H](CCCCNC(=O)CN1CCN(CC(=O)O)CCN(CC(=O)O)CCN(CC(=O)O)CC1)C(N)=O [PSM-0267, HPA-Aib-Pcf-[Cys-Lys-Arg-Aib-Asn-Cys]-Tle-Thr-lys(DOTA)-NH2] ({Propanoyl(3-OH)}-[Aib][Phe(4-Cl)]CKR[Aib]NC[Tle]T[dK](DOTA)-NH2; disulfide 3-8)
